In patent US4471131A, “Novel silyl esters of N-phosphonomethylglycine” (Monsanto Company, priority 1983, dated 1984):

What was measured:
Assay in all cases: post-emergence herbicidal activity, greenhouse
Assay type in all cases: in vivo
Soybean = conditions: Table III
How it was run: (§1)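 Using pans of compacted topsoil, seeds were pressed in, covered, and grown on a greenhouse sand bench with subirrigation. Once two to three weeks old, plants were sprayed individually in a chamber; pans then returned to the greenhouse, and injury versus controls was noted around 2 and 4 WAT.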

Pennsylvania Smartweed = tested on: Pennsylvania Smartweed
How it was run: as §1

Quackgrass = conditions: Table II
How it was run: (§2)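 Injury versus control pans was recorded at about 2 and 4 weeks post-treatment. Treatment was post-emergence: an atomizer spray holding roughly 0.4% by weight emulsifier and enough candidate chemical for the tabulated rates, applied to two-to-three-week-old plants raised in top-soil pans.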

Rice = conditions: Table III
How it was run: as §1

Sugar Beet = conditions: Table III
How it was run: as §1

Hemp Sesbania = conditions: Table III
How it was run: as §1

Large Crabgrass = conditions: Table III
How it was run: as §1

Yellow Nutsedge = conditions: Table II
How it was run: as §2

Morningglory = tested on: Morningglory
How it was run: as §1

[1] = 2 WAT, 1.1 kg/h, formulated in anhydrous tetrahydrofuran
[2] = 2 WAT, 5.6 kg/h, formulated in anhydrous tetrahydrofuran
[3] = 2 WAT, .28 kg/h, formulated in anhydrous tetrahydrofuran
[4] = 4 WAT, 1.1 kg/h, formulated in anhydrous tetrahydrofuran
[5] = 4 WAT, 5.6 kg/h, formulated in anhydrous tetrahydrofuran
[6] = 4 WAT, .28 kg/h, formulated in anhydrous tetrahydrofuran
[7] = Table II, 2 WAT, 5.6 kg/h, formulated in anhydrous tetrahydrofuran
[8] = Table II, 2 WAT, 11.2 kg/h, formulated in anhydrous tetrahydrofuran
[9] = Table II, 4 WAT, 5.6 kg/h, formulated in anhydrous tetrahydrofuran
[10] = Table II, 4 WAT, 11.2 kg/h, formulated in anhydrous tetrahydrofuran
[11] = Table III, 2 WAT, 1.1 kg/h, formulated in anhydrous tetrahydrofuran
[12] = Table III, 2 WAT, .28 kg/h, formulated in anhydrous tetrahydrofuran
[13] = Table III, 4 WAT, 1.1 kg/h, formulated in anhydrous tetrahydrofuran
[14] = Table III, 4 WAT, .28 kg/h, formulated in anhydrous tetrahydrofuran
[15] = 2 WAT, 11.2 kg/h, formulated in anhydrous tetrahydrofuran
[16] = 4 WAT, 11.2 kg/h, formulated in anhydrous tetrahydrofuran

CCCCOC(=O)CNCP(=O)(O)O[Si](c1ccccc1)(c1ccccc1)C(C)(C)C [Ex. 6, Glycine, N--((([(1,1-Dimethylethyl)Diphenylsilyl]Oxy)Hydroxyphosphinyl)methyl)-Butyl Ester]
1 (25-49% inhibition): Plant Response Index (L) (Soybean; 2 WAT, 1.1 kg/h) | Plant Response Index (L) (Soybean; [1]) | Plant Response Index (L) (Soybean; 2 WAT, 5.6 kg/h) | Plant Response Index (L) (Soybean; [3]) | Plant Response Index (L) (Soybean; 4 WAT, 1.1 kg/h) | Plant Response Index (L) (Soybean; [4]) | Plant Response Index (L) (Soybean; 4 WAT, 5.6 kg/h) | Plant Response Index (L) (Soybean; [6]) | Plant Response Index (F) (Pennsylvania Smartweed; [12]) | Plant Response Index (F) (Pennsylvania Smartweed; [14]) | Plant Response Index (H) (Quackgrass; 2 WAT, 11.2 kg/h) | Plant Response Index (H) (Quackgrass; [5]) | Plant Response Index (O) (Rice; 2 WAT, 1.1 kg/h) | Plant Response Index (O) (Rice; [2]) | Plant Response Index (O) (Rice; 4 WAT, 1.1 kg/h) | Plant Response Index (M) (Sugar Beet; 2 WAT, 1.1 kg/h) | Plant Response Index (M) (Sugar Beet; [1]) | Plant Response Index (M) (Sugar Beet; [2]) | Plant Response Index (M) (Sugar Beet; 4 WAT, 1.1 kg/h) | Plant Response Index (M) (Sugar Beet; [4]) | Plant Response Index (M) (Sugar Beet; [5]) | Plant Response Index (R) (Hemp Sesbania; 2 WAT, 1.1 kg/h) | Plant Response Index (R) (Hemp Sesbania; [1]) | Plant Response Index (R) (Hemp Sesbania; 4 WAT, 1.1 kg/h) | Plant Response Index (T) (Large Crabgrass; [3]) | Plant Response Index (G) (Yellow Nutsedge; 2 WAT, 11.2 kg/h) | Plant Response Index (G) (Yellow Nutsedge; 4 WAT, 5.6 kg/h) | Plant Response Index (G) (Yellow Nutsedge; [5]) | Plant Response Index (G) (Yellow Nutsedge; [16]) | Plant Response Index (D) (Morningglory; [7]) | Plant Response Index (D) (Morningglory; Table III, 2 WAT, .28 kg/h) | Plant Response Index (D) (Morningglory; [12]) | Plant Response Index (D) (Morningglory; [14])
4 (100% inhibition): Plant Response Index (F) (Pennsylvania Smartweed; [13]) | Plant Response Index (H) (Quackgrass; 4 WAT, 11.2 kg/h) | Plant Response Index (R) (Hemp Sesbania; [2]) | Plant Response Index (R) (Hemp Sesbania; [5]) | Plant Response Index (T) (Large Crabgrass; 2 WAT, 1.1 kg/h) | Plant Response Index (T) (Large Crabgrass; [1]) | Plant Response Index (T) (Large Crabgrass; 2 WAT, 5.6 kg/h) | Plant Response Index (T) (Large Crabgrass; [2]) | Plant Response Index (T) (Large Crabgrass; 2 WAT, .28 kg/h) | Plant Response Index (T) (Large Crabgrass; 4 WAT, 1.1 kg/h) | Plant Response Index (T) (Large Crabgrass; [4]) | Plant Response Index (T) (Large Crabgrass; 4 WAT, 5.6 kg/h) | Plant Response Index (T) (Large Crabgrass; [5])
0 (0-24% inhibition): Plant Response Index (L) (Soybean; 2 WAT, .28 kg/h) | Plant Response Index (F) (Pennsylvania Smartweed; Table II, 2 WAT, 5.6 kg/h) | Plant Response Index (F) (Pennsylvania Smartweed; [7]) | Plant Response Index (F) (Pennsylvania Smartweed; [8]) | Plant Response Index (F) (Pennsylvania Smartweed; Table II, 4 WAT, 5.6 kg/h) | Plant Response Index (F) (Pennsylvania Smartweed; [9]) | Plant Response Index (F) (Pennsylvania Smartweed; [10]) | Plant Response Index (H) (Quackgrass; 2 WAT, 5.6 kg/h) | Plant Response Index (H) (Quackgrass; [2]) | Plant Response Index (H) (Quackgrass; [15]) | Plant Response Index (H) (Quackgrass; 4 WAT, 5.6 kg/h) | Plant Response Index (H) (Quackgrass; [16]) | Plant Response Index (O) (Rice; [1]) | Plant Response Index (O) (Rice; 2 WAT, .28 kg/h) | Plant Response Index (O) (Rice; [3]) | Plant Response Index (O) (Rice; [4]) | Plant Response Index (O) (Rice; [6]) | Plant Response Index (M) (Sugar Beet; 2 WAT, .28 kg/h) | Plant Response Index (M) (Sugar Beet; [3]) | Plant Response Index (M) (Sugar Beet; [6]) | Plant Response Index (R) (Hemp Sesbania; [3]) | Plant Response Index (R) (Hemp Sesbania; [4]) | Plant Response Index (R) (Hemp Sesbania; [6]) | Plant Response Index (T) (Large Crabgrass; [6]) | Plant Response Index (G) (Yellow Nutsedge; 2 WAT, 5.6 kg/h) | Plant Response Index (G) (Yellow Nutsedge; [2]) | Plant Response Index (G) (Yellow Nutsedge; [15])
2 (50-74% inhibition): Plant Response Index (L) (Soybean; [2]) | Plant Response Index (L) (Soybean; [5]) | Plant Response Index (F) (Pennsylvania Smartweed; Table II, 2 WAT, 11.2 kg/h) | Plant Response Index (F) (Pennsylvania Smartweed; Table II, 4 WAT, 11.2 kg/h) | Plant Response Index (F) (Pennsylvania Smartweed; Table III, 2 WAT, 1.1 kg/h) | Plant Response Index (O) (Rice; 2 WAT, 5.6 kg/h) | Plant Response Index (O) (Rice; [5]) | Plant Response Index (M) (Sugar Beet; 2 WAT, 5.6 kg/h) | Plant Response Index (R) (Hemp Sesbania; 2 WAT, 5.6 kg/h) | Plant Response Index (R) (Hemp Sesbania; 4 WAT, 5.6 kg/h) | Plant Response Index (G) (Yellow Nutsedge; 4 WAT, 11.2 kg/h) | Plant Response Index (D) (Morningglory; Table II, 2 WAT, 5.6 kg/h) | Plant Response Index (D) (Morningglory; Table II, 2 WAT, 11.2 kg/h) | Plant Response Index (D) (Morningglory; [8]) | Plant Response Index (D) (Morningglory; Table II, 4 WAT, 5.6 kg/h) | Plant Response Index (D) (Morningglory; [9]) | Plant Response Index (D) (Morningglory; Table II, 4 WAT, 11.2 kg/h) | Plant Response Index (D) (Morningglory; [10]) | Plant Response Index (D) (Morningglory; Table III, 2 WAT, 1.1 kg/h) | Plant Response Index (D) (Morningglory; [11]) | Plant Response Index (D) (Morningglory; Table III, 2 WAT, 5.6 kg/h) | Plant Response Index (D) (Morningglory; Table III, 2 WAT, 5.6 kg/h, formulated in anhydrous tetrahydrofuran) | Plant Response Index (D) (Morningglory; Table III, 4 WAT, 1.1 kg/h) | Plant Response Index (D) (Morningglory; [13]) | Plant Response Index (D) (Morningglory; Table III, 4 WAT, 5.6 kg/h, formulated in anhydrous tetrahydrofuran)
3 (75-99% inhibition): Plant Response Index (F) (Pennsylvania Smartweed; [11]) | Plant Response Index (F) (Pennsylvania Smartweed; Table III, 2 WAT, 5.6 kg/h) | Plant Response Index (F) (Pennsylvania Smartweed; Table III, 2 WAT, .28 kg/h) | Plant Response Index (F) (Pennsylvania Smartweed; Table III, 4 WAT, 1.1 kg/h) | Plant Response Index (F) (Pennsylvania Smartweed; Table III, 4 WAT, 5.6 kg/h) | Plant Response Index (O) (Rice; 4 WAT, 5.6 kg/h) | Plant Response Index (M) (Sugar Beet; 4 WAT, 5.6 kg/h) | Plant Response Index (D) (Morningglory; Table III, 4 WAT, 5.6 kg/h)
